Experimental data as given in patent US20230075779A1, “METHODS AND COMPOSITIONS FOR TREATING CANCER OR VIRAL INFECTION WITH A PLA2G2D ANTAGONIST” (Apeximmune Therapeutics Inc., priority 2020, published 2023).
“Also recorded” adds a separate entry of the source.

What was measured:
[1] = target: T1, PLA2G2D (Homo sapiens, UniProt Q9UNK4); experiment: Reversal of PLA2G2D-Fc induced suppression of T cell proliferation in PBMC culture by sPLA2 inhibitor; format: cell-based; settings: 0-25 μM inhibitor, PBMC culture with wild type PLA2G2D-Fc
T1 sequence (Q9UNK4 21-145): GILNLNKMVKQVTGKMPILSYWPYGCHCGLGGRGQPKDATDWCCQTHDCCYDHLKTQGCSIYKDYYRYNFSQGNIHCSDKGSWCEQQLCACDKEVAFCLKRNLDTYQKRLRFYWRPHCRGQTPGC

[2] = system: CD4+ and CD8+ T cells in PBMC cultures; experiment: T cell proliferation in stimulated PBMC culture, plate-immobilized protein; format: cell-based, human; settings: immobilized protein coated at 0-10 μg/ml
Method: The effect of human PLA2G2D-Fc on T cell activation was assessed in peripheral blood mononuclear cell (PBMC) or isolated T cell cultures. […] PBMC cultures were incubated for 72 hours at 37° C. before the supernatants were harvested and measured for IFNγ and IL-2 levels using MSD V-plex assays (Meso Scale Discovery). T cell proliferation within the PBMC culture was simultaneously assessed by staining cells with fluorophore-conjugated anti-CD3, anti-CD4, and anti-CD8 antibodies (Biolegend) and Live/Dead Fixable dead cell stain (Molecular Probes), and running on a BD LSRFortessa X-20 flow cytometer (Becton Dickinson). FACS data was analyzed using FlowJo software.
To assess the effect of immobilized PLA2G2D protein on T cell proliferation in PBMC cultures, the same assay was utilized except 100 μl of 0-10 μg/ml human PLA2G2D-Fc or control human IgG1-Fc protein was coated overnight in PBS at 4° C. on 96-well flat bottom plates the day before PBMC were prepared and added along with anti-CD3 and anti-CD28 antibodies.

[3] = system: PBMC cultures; experiment: IFNγ and IL-2 levels in stimulated PBMC culture supernatants (MSD V-plex); format: cell-based, human; settings: soluble protein 0-20 μg/ml, 72 hours
Method: (§1) The effect of human PLA2G2D-Fc on T cell activation was assessed in peripheral blood mononuclear cell (PBMC) or isolated T cell cultures. PBMC were isolated from leukoreduction system (LRS) chambers from healthy human donors by centrifugation over Ficoll-Paque Plus (GE Life Sciences) and labeled in a 5 μM CFSE solution (Molecular Probes) for 12 min at 37° C. and washed. 2×10^5 labeled PBMC per well of a 96 well round bottom plate were then stimulated with 1 μg/ml anti-CD3 (OKT3, Invitrogen) and 0.2 μg/ml anti-CD28 (CD28.2, Invitrogen) in the presence of soluble 0-20 μg/ml human PLA2G2D-Fc or control human IgG1-Fc protein (Sino Biological) as indicated in a final volume of 200 μl RPMI (Corning). PBMC cultures were incubated for 72 hours at 37° C. before the supernatants were harvested and measured for IFNγ and IL-2 levels using MSD V-plex assays (Meso Scale Discovery). T cell proliferation within the PBMC culture was simultaneously assessed by staining cells with fluorophore-conjugated anti-CD3, anti-CD4, and anti-CD8 antibodies (Biolegend) and Live/Dead Fixable dead cell stain (Molecular Probes), and running on a BD LSRFortessa X-20 flow cytometer (Becton Dickinson). FACS data was analyzed using FlowJo software.

[4] = system: primary human T cells; experiment: Binding of PLA2G2D-Fc to resting and activated primary human T cells (FACS); settings: 0-10 μg/ml
Method: To determine whether PLA2G2D elicits immune suppression by directly binding to T cells in vitro, the level of PLA2G2D binding was assessed on resting and activated primary human T cells. T cells were isolated from PBMC using a Pan T Cell Isolation Kit (Miltenyi) and cultured in the presence or absence of beads loaded with anti-human CD2, CD3, and CD28 antibodies (human T Cell Activation/Expansion Kit, Miltenyi) in RPMI for 48 hours at 37° C. Stimulated or unstimulated T cells were then harvested, washed, and incubated with 0-10 μg/ml of human PLA2G2D-Fc protein or human IgG1-Fc protein for 30 minutes at 4° C. Cells were washed 3 times with PBS and then stained with Alexa 488-conjugated goat anti-human IgG1 antibodies (Invitrogen) for 30 minutes at 4° C., washed, then analyzed by FACS.

[5] = system: PBMC derived CD4+ and CD8+ T cells; experiment: T cell proliferation (CFSE) in anti-CD3/anti-CD28 stimulated PBMC culture, soluble protein; format: cell-based, human; settings: soluble protein 0-20 μg/ml, 72 hours
Method: as §1, with “software. […]” for “software.”

[6] = system: isolated T cells; experiment: Proliferation of isolated T cell cultures with anti-CD3/anti-CD28 stimulation; format: cell-based, human
Method: To evaluate the effect of PLA2G2D protein on isolated T cells, […] protein as well as with 1 μg/ml anti-CD3 (OKT3) and 0.2 μg/ml anti-CD28 (CD28.2) in 100 μl of PBS. The following day, plates were washed twice with PBS before addition of T cells. T cells were isolated from PBMC using a Pan T Cell Isolation Kit (Miltenyi) and labeled with CFSE as described above. 1×10^5 purified and labeled T cells were added to each well of the coated plate in a final volume of 200 μl RPMI. T cells were allowed to proliferate for 72 hours at 37° C. before supernatants were collected for IFNγ and IL-2 analysis by MSD and proliferation was analyzed by FACS.

Compound	reversal of immune suppression induced by PLA2G2D [1]	CD4+ and CD8+ T cell proliferation [2]	CD4+ and CD8+ T cell proliferation ([2]; listed as PLA2G2D protein)	levels of IFNγ and IL-2 [3]	levels of IFNγ and IL-2 ([3]; listed as PLA2G2D protein)	binding to activated CD4+ and CD8+ T cells ([4]; stimulated T cells, compared with control human IgG1-Fc)	binding to unstimulated T cells ([4]; unstimulated T cells)	CD4+ and CD8+ T cell proliferation [5]	CD4+ and CD8+ T cell proliferation ([5]; listed as PLA2G2D protein)	proliferation of isolated T cell cultures ([6]; immobilized protein coated at 0-10 μg/ml, 72 hours)	suppressive effect on isolated T cells ([6]; soluble protein added instead of coated (data not shown))
CCc1c(C(=O)C(N)=O)c2c(OCC(=O)O)cccc2n1Cc1ccccc1 [LY315920]	does not rescue immune suppression; also recorded: does not reverse immune suppression	–	–	–	–	–	–	–	–	–	–
PLA2G2D-Fc: soluble human PLA2G2D-Fc protein (Sino Biological); the immunosuppressive protein studied	–	suppressed	dose-dependently suppresses	dose-dependently and significantly decreased	dose-dependently suppresses	preferentially binds	to a small degree	dose-dependently suppresses; also recorded: dose dependently suppressed	dose-dependently suppresses	dose-dependently suppresses	no suppressive effect
